The numbers were not newly measured in patent US9339581B2, “Absorbent and absorbent article provided therewith” (UNICHARM CORPORATION, priority 2012, dated 2016), which cites them from elsewhere.

The conditions of the data set: at 20° C.; cited from earlier work.

Turning to `CCCCC(=O)CCCC` [5-nonanone], the vapor pressure result is “about 230 Pa”.
